Laboratory results reported in patent US10996215B2, “Methods for determining drug efficacy for the treatment of diffuse large B-cell lymphoma, multiple myeloma, and myeloid cancers” (CELGENE CORPORATION, priority 2013, dated 2021).
Residues, ends and D or L forms follow the SMILES beside them. *: point of attachment. Cbz = O=C(OCc1ccccc1)*

Assays:
Aiolos, Ikaros, ZFP91 [1] = assay: CRBN dependence of ZFP91 reduction in U266 cells, Western blot; assay type: cell-based; conditions: for compound-induced reduction of Aiolos, Ikaros, and ZFP91 after inhibitor pretreatment: 10 mM MLN4924 or MG132 for 1 hr, then compounds 6 hr; for destruction of Aiolos, Ikaros, and ZFP91 (CRBN dependent pathway): 6 hour
Description: U266 cells were transduced with inducible shRNA constructs targeting CRBN or targeting luciferase as control. Cells were grown in the presence or in the absence of 10 ng/ml Doxycycline, and in the presence or in the absence of 1 μM pomalidomide. Cells were harvested and were treated in cell lysis buffer to generate cell lysates. Proteins from cell lysate were separated by gel electrophoresis and transferred to nitrocellulose membranes. Immunoblots were then probed with antibodies recognizing Aiolos, CRBN, Ikaros, ZFP91, IRF4, IFIT1, IFIT3, P-STAT1, and β-actin (Li-Cor).
Cells were harvested, and lysates were run on 10% SDS-PAGE and immunoblotted with the appropriate antibodies.
MG132 activates c-Jun N-terminal kinase (JNK1), which initiates apoptosis. […] MLN4924 is a NAE1 inhibitor that blocks the activity of Cullin Ring Ligases (CRLs), such as CRL4^CRBN. […] Cells were harvested and lysates were run on 10% SDS-PAGE, transferred to nitrocellulose and immunoblotted with the corresponding antibodies.

CSNK1A1 (CK1α), Ikaros = assay: MG-132, MLN-4924 or Compound A pre-treatment, Western analysis in HNT-34 cells; assay type: cell-based; conditions: for LEN-mediated CK1α reduction after inhibitor pretreatment: FIG. 27B
NF-κB activation = conditions: cited from earlier work
[2] = system: TMD8 (ABC) or Karpas 422 (GCB) cells; assay: competition with lenalidomide for CRBN, 3H-thymidine proliferation; assay type: cell-based; conditions: TMD8 or Karpas 422; co-treatment with 10 μM lenalidomide; competition of binding to the CRBN complex
ZFP91, Aiolos = assay: Western blot of ZFP91 and Aiolos in OCI-LY10 cells; assay type: cell-based; conditions: for levels of ZFP91 and Aiolos: 6 hrs, 100 mM thalidomide, 10 mM lenalidomide, 1 mM pomalidomide, 1 μM or 10 μM Compound A, 100 nM Compound B, FIG. 17A
From the text: Cells were harvested with RIPA buffer, and proteins from cell lysates were separated by 10% sodium dodecyl sulfate polyacrylamide (SDS-PAGE) gel electrophoresis (Bio-Rad), and transferred to PVDF membranes (Invitrogen). Immunoblots were probed with antibodies recognizing Aiolos (9-9-7; Celgene), CK1α(Abcam), GSPT1 (Sigma), ZFP91 (LSBio) and β-actin (Li-Cor). Signals were detected with a Li-Cor Odyssey imager.
Immunoblots were probed with antibodies recognizing Aiolos (9-9-7; Celgene), GSPT1 (Sigma), ZFP91 (LSBio) and β-actin (Li-Cor). Signals were detected with a Li-Cor Odyssey imager.
OCI-LY10 cells treated with DMSO or various drugs for 6 hrs. Cells were harvested with RIPA buffer and proteins from cell lysates were separated by 10% sodium dodecyl sulfate polyacrylamide (SDS-PAGE) gel electrophoresis (Bio-Rad), and transferred to PVDF membranes (Invitrogen). Immunoblots were probed with antibodies recognizing: Aiolos (9-9-7; Celgene), CK1α(Abcam), GSPT1 (Sigma), ZFP91 (LSBio) and β-actin (Li-Cor). Signals were detected with a Li-Cor Odyssey imager.
OCI-LY10 cells were then treated with DMSO or various drugs for 6 hrs. […] Cells were harvested with RIPA buffer and Proteins from cell lysates were separated by 10% sodium dodecyl sulfate polyacrylamide (SDS-PAGE) gel electrophoresis (Bio-Rad), and transferred to PVDF membranes (Invitrogen). Immunoblots were probed with antibodies recognizing: Aiolos (9-9-7; Celgene), ZFP91 (LSBio), ZNF198 (LSBio) and β-actin (Li-Cor). Signals were detected with a Li-Cor™ Odyssey imager.
OCI-LY10 cells stably transduced with shCRBN 11 were induced for 48 hrs with either 0 or 10 ng/ml of doxycycline. […] Where MLN4924 treatments were present, MLN4924 was pre-incubated for 1 hr prior to drug treatment. Cells were harvested with RIPA buffer and Proteins from cell lysates were separated by 10% sodium dodecyl sulfate polyacrylamide (SDS-PAGE) gel electrophoresis (Bio-Rad), and transferred to PVDF membranes (Invitrogen). Immunoblots were probed with antibodies recognizing: CRBN-65, Aiolos (9-9-7; Celgene), Ikaros (Millipore), ZFP91 (LSBio) and β-actin (Li-Cor). Signals were detected with a Li-Cor Odyssey imager.

IFN pathway = assay: effect on IFN pathway (FIG. 13); assay type: cell-based
Aiolos, Ikaros, ZFP91 [3] = assay: Western blot in myeloma, lymphoma and primary B cells; assay type: cell-based; conditions: U266, DF15, RPMI8226, OCI-LY10, WSU-DLCL2, WSU-DLCL2 Compound A resistant, primary B cells; 8 hours
Description: Multiple myeloma cells (U266, DF15, RPMI8226), diffuse large B cell lymphoma cells (OCI-LY10, WSU-DLCL2, WSU-DLCL2 Compound A resistant), and primary B cells were treated with DMSO, […] or […] for 8 hours. Cells were harvested and were treated in cell lysis buffer to generate cell lysates. Proteins from cell lysate were separated by gel electrophoresis (10% SDS-PAGE) and transferred to nitrocellulose membranes. Immunoblots were then probed with antibodies recognizing Aiolos, CRBN, Ikaros, ZFP91 (LSBio), IRF4, IRF7, Myc, and β-actin (Li-Cor).

What does the source list for `CC(C)C[C@@H](C=O)NC(=O)[C@H](CC(C)C)NC(=O)[C@H](CC(C)C)NC(=O)OCc1ccccc1` [MG132] (Cbz-Leu-Leu-Leu-aldehyde)?
compound-induced reduction of Aiolos, Ikaros, and ZFP91 after inhibitor pretreatment (Aiolos, Ikaros, ZFP91 [1]): blocked; CSNK1A1 protein levels in the presence of lenalidomide (CSNK1A1 (CK1α), Ikaros; 3 μM or 10 μM MG-132 pre-treatment 30 min): stabilized; LEN-mediated CK1α reduction after inhibitor pretreatment (CSNK1A1 (CK1α), Ikaros): abrogated; IC50 (NF-κB activation): 3 µM

With `Cc1ccc(NC(=O)NCc2ccc3c(c2)CN(C2CCC(=O)NC2=O)C3=O)cc1Cl` (stereo not shown) [Compound C, 1-(3-chloro-4-methylphenyl)-3-((2-(2,6-dioxopiperidin-3-yl)-1-oxoisoindolin-5-yl)methyl)urea] as the compound, how does the “anti-proliferative effects on co-treatment with lenalidomide” value [2] read?
Its value is “blocks anti-proliferative effects of Compound C”.

Which “levels of ZFP91 and Aiolos” value (ZFP91, Aiolos; OCI-LY10) does the source give for `O=C1CCC(N2Cc3c(OCc4ccc(CN5CCOCC5)cc4)cccc3C2=O)C(=O)N1` (stereo not shown) [Compound B, 3-[4-(4-Morpholin-4-ylmethyl-benzyloxy)-1-oxo-1,3-dihydro-isoindol-2-yl]-piperidine-2,6-dione] here?
The value was “reduced”.

Which results are given for `Nc1cccc2c1C(=O)N(C1CCC(=O)NC1=O)C2=O` (stereo not shown) [pomalidomide]?
IFIT1, IFIT3, DDX58, XAF1, IFIH1, and OAS3 protein expression (IFN pathway; FIG. 13A): upregulates; DDX58, IFI27, IFIT1, IFIT3, DDX58, and XAF1 gene expression (IFN pathway; FIG. 13B): upregulates; ISG15 and OAS3 gene expression (IFN pathway; FIG. 13C): upregulates; IRF changes (IFN pathway; FIG. 13E): induces; IFIT1 and IFIT3 protein expression (IFN pathway; FIG. 13F): upregulates; IKKE protein level (IFN pathway; FIG. 13F): reduces; TBK1 phosphorylation (TBK1-PO4) (IFN pathway; FIG. 13F): upregulates; levels of STAT or phosphorylated STAT (IFN pathway; FIG. 13G): induces changes; levels of ZFP91 and Aiolos (ZFP91, Aiolos; OCI-LY10): reduced; levels of Aiolos, Ikaros, and ZFP91 (Aiolos, Ikaros, ZFP91 [3]): reduced; pomalidomide induced reductions of Aiolos, Ikaros, and ZFP91 when CRBN knocked down by shRNA (Aiolos, Ikaros, ZFP91 [1]; 1 μM pomalidomide, 10 ng/ml Doxycycline): blocked; destruction of Aiolos, Ikaros, and ZFP91 (CRBN dependent pathway) (Aiolos, Ikaros, ZFP91 [1]): induced

With `O=C1CCC(N2C(=O)c3ccccc3C2=O)C(=O)N1` (stereo not shown) [thalidomide] as the compound, how does the “levels of ZFP91 and Aiolos” value (ZFP91, Aiolos; OCI-LY10) read?
Its value is “reduced”.

What about the “destruction of Aiolos, Ikaros, and ZFP91 (CRBN dependent pathway)” value (Aiolos, Ikaros, ZFP91 [1]) of the same compound?
The value was “induced”.

For `NS(=O)(=O)OC[C@@H]1C[C@@H](n2ccc3c(N[C@H]4CCc5ccccc54)ncnc32)C[C@@H]1O` [MLN4924], which “level of both Aiolos and ZFP91 in drug-treated cells after MLN-4924 pre-treatment” value (ZFP91, Aiolos; OCI-LY10, 10 μM MLN-4924 1 hour prior to drug, FIG. 17C) is on record?
The value was “restored”.

What about the “Aiolos and ZFP91 degradation in response to Compound A” value (ZFP91, Aiolos; OCI-LY10, 10 μM MLN-4924 pretreatment 1 hour, FIG. 14B) of the same compound?
The value was “blocked”.

And the “level of both Aiolos and ZFP91 in drug-treated cells after MLN-4924 pre-treatment” value (ZFP91, Aiolos; OCI-LY10 shCRBN 11, lenalidomide or Compound A 6 hours, MLN4924 1 hr pre-incubation, FIG. 17D)?
Its value is “restored”.

What about the “compound-induced reduction of Aiolos, Ikaros, and ZFP91 after inhibitor pretreatment” value (Aiolos, Ikaros, ZFP91 [1]) of the same compound?
The value was “blocked”.

What about the “LEN-mediated CK1α reduction after inhibitor pretreatment” value (CSNK1A1 (CK1α), Ikaros) of the same compound?
The value was “abrogated”.
